Calls of active or inactive are those of the source. The rule behind the calls is not given here.
How the values were obtained:
[1] = target: NACHT, LRR and PYD domains-containing protein 3 (Mus musculus, UniProt Q8R4B8); test: Inhibition of NLRP3 inflammasome activation in mouse BMDM cells assessed as reduction in IL-1beta release by ELISA; assay type: cell-based
BMDM [2] = test: Effect on pro-IL-1beta protein expression in mouse BMDM cells; assay type: functional, cell-based
[3] = target: NACHT, LRR and PYD domains-containing protein 3 (Mus musculus) (UniProt Q8R4B8); test: Inhibition of NLRP3 inflammasome activation in mouse BMDM cells assessed as inhibition of mature IL-1beta release by immunoblotting analysis; assay type: cell-based
Chain of NACHT, LRR and PYD domains-containing protein 3 (Mus musculus) (Q8R4B8 whole entry, the tested form may be a part): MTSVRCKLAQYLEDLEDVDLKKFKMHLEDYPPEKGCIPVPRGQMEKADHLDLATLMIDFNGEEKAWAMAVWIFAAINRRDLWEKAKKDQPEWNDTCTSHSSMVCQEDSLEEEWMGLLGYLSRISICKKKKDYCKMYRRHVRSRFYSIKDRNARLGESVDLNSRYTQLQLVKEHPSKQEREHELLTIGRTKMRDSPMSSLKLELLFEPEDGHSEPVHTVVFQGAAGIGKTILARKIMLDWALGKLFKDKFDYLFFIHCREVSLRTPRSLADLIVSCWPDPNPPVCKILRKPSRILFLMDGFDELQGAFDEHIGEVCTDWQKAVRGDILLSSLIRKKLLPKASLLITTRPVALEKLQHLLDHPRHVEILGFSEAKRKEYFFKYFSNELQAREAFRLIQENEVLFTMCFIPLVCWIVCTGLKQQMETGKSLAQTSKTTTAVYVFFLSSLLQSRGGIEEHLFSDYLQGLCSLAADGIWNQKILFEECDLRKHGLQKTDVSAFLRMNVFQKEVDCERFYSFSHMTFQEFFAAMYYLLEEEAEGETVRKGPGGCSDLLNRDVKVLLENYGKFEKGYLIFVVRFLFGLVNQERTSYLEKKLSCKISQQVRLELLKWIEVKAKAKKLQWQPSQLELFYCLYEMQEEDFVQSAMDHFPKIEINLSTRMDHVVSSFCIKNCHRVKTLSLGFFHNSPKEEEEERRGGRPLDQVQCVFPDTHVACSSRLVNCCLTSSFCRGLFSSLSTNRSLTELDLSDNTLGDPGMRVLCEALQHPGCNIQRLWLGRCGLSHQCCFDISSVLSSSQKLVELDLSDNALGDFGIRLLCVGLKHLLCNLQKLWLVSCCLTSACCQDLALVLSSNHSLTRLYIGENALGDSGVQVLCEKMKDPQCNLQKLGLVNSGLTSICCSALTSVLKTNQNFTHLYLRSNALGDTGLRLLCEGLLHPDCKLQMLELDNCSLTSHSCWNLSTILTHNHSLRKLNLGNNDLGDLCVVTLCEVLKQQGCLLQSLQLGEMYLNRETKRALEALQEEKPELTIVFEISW

[4] = target: NACHT, LRR and PYD domains-containing protein 3 (Mus musculus) (UniProt Q8R4B8); test: Inhibition of NLRP3 inflammasome activation in mouse BMDM cells assessed as inhibition of caspase-1 release by immunoblotting analysis; assay type: cell-based
BMDM [5] = test: Effect on NLRP3 protein expression in mouse BMDM cells; assay type: functional, cell-based
BMDM [6] = test: Effect on pro-caspase-1 protein expression in mouse BMDM cells; assay type: functional, cell-based

Chain of NACHT, LRR and PYD domains-containing protein 3 (Q8R4B8 whole entry, the tested form may be a part): as above

| SMILES | IC50 [1] | further results |
| --- | --- | --- |
| O=c1c(O)c(-c2ccc(O)c(O)c2)oc2cc(O)cc(O)c12 [QUERCETIN] | 37.1 µM | – |
| COc1ccc(-c2cc(=O)c3c(O)cc(O)c(CC=C(C)C)c3o2)cc1 | 11.4 µM | – |
| CC(C)=CCc1c(O)cc2oc(-c3ccc(O)cc3)c(O)c(=O)c2c1O [LICOFLAVONOL] | 8.5 µM | – |
| COc1cc(C2CC(=O)c3c(O)cc(O)c(CC=C(C)C)c3O2)c(O)cc1O (stereo not given) [KUSHENOL W] | 17.3 µM | – |
| COc1cc(-c2cc(=O)c3c(O)cc(O)c(CC=C(C)C)c3o2)ccc1O | 41.2 µM | – |
| COc1cc(-c2cc(=O)c3c(O)cc4c(c3o2)C=CC(C)(C)O4)ccc1O | > 100 µM | – |
| COc1ccc(-c2cc(=O)c3c(O)cc4c(c3o2)C=CC(C)(C)O4)cc1 | > 100 µM | – |
| CC(C)=CCC/C(C)=C/Cc1c(O)cc2oc(-c3ccc(O)cc3)c(O)c(=O)c2c1O [MACARANGIN] | 3.4 µM | Activity (BMDM [2]): inactive; inhibition [3]: Dose-Dependent Effect; inhibition [4]: Dose-Dependent Effect; Activity (BMDM [5]): inactive; Activity (BMDM [6]): inactive |
| CC(C)=CCc1c(O)cc2oc(-c3ccc(O)c(O)c3)c(O)c(=O)c2c1O [GANCAONIN P] | 20.4 µM | – |
| O=c1c(O)c(-c2ccc(O)cc2)oc2cc(O)cc(O)c12 [KAEMPFEROL] | > 100 µM | – |

Reference: ChEMBL document CHEMBL5550136, “Total synthesis/semi-synthesis of natural isopentenyl flavonoids with inhibitory activity on NLRP3 inflammasome” (Bioorg Med Chem Lett, 2024)
